{
  "source": "patent US10238702B2",
  "about": "“Pharmaceutical composition, preparation method therefor and use thereof” (SICHUAN JIUZHANG BIOLOGICAL SCIENCE AND TECHNOLOGY CO., LTD, priority 2013, dated 2019)",
  "key": {"[1]": {"system": "mouse peritoneal macrophages", "experiment": "Phagocytosis test of chicken red blood cell", "type": "in vivo, Kunming mice", "details": "intragastric once per day for four weeks, 300 mg/kg (Mannatide 20 mg/kg); for Phagotrophic percentage (%, X ± SD): chicken red blood cells phagocytized by 100 macrophages", "description": "Kunming mice were randomly divided into seven groups according to gender and body weight, with 12 mice in each group. As the dose design, all groups received one intragastric administration per day at a dose of 0.4 ml/20 g for successive four weeks. Mice were weighed for two times per week, to adjust the drug dosage. 30 minutes after final administration, each mouse in each group was injected intraperitoneally with 5% chicken erythrocyte suspension at a dose of 1.0 ml/mouse. Six hours after injection, animals were sacrificed by cervical dislocation, and received 2 ml physiological saline via peritoneal injection, while the abdomen of mice was gently massaged. Then, one pin hole was cut in the center of peritoneum, and washing water in peritoneal cavity was extracted, dropped on microscope slide, and cultured for 30 min in incubator at 37° C. The solution was washed with normal saline, fixed using methanol, and dyed by Giemsa staining. The numbers of chicken red blood cell phagocytized by 100 macrophages were observed under oil immersion lens. The phagotrophic percentage and the phagotrophic index were calculated according to the following formula, and results were shown in Table 15. [formula] [formula]"}, "[2]": {"system": "mouse macrophages", "experiment": "Carbon granules clearance test", "type": "in vivo, Kunming mice", "details": "once per day for four weeks, 300 mg/kg (Mannatide 20 mg/kg); for α value (X ± SD): corrected phagotrophic index; for K value (X ± SD): Indian ink via vena caudalis, blood at 1 and 5 min", "description": "Kunming mice were randomly divided into seven groups according to gender and body weight, with 10 mice in each group. As the dose design in Table 14, all groups were administrated once per day at a dose of 0.4 ml/20 g for successive four weeks. Mice were weighed for two times per week, to adjust the drug dosage. One hour after final administration, each mouse in each group was injected with Indian ink [(1:4)0.1 ml·10 g^−1] via vena caudalis. […] After animals were sacrificed by cervical dislocation, liver and spleen were collected and weighed, to calculate the phagotrophic index K=(log OD^1−log OD2)/(t2−t1) and correct the phagotrophic index α=[body weight/(liver weight+spleen weight)]×K^1/3."}, "[3]": {"system": "oxygen radicals", "experiment": "Metabolism of in vivo oxygen radicals (serum SOD activity, MDA content)", "parameters": "species or system C57BL/6 mice", "details": "blood serum, intragastric once per day for four weeks, 300 mg/kg (IFNa-2b 300 0000 IU)", "description": "Experimental methods: C57BL/6 mice were randomly divided to eight groups as body weight, with 10 mice in each group. According to the dose design in Table 14, all groups received one intragastric administration per day at a dose of 0.4 ml/20 g for successive four weeks. Mice were weighed for two times per week, to adjust the drug dosage. On the last day of experiment, blood samples were drawn from femoral artery of animals and centrifuged to collect blood serum. Using TBA colorimetric method and xanthine oxidase method, application of sample was performed according to procedures of kit instructions, and absorbance values were measured at wavelengths of 532 nm and 550 nm using UV2300 Ultraviolet spectrophotometer. MDA content and SOD activity were calculated, respectively."}},
  "note": "Marks after values point to notes of the source that are not given here.",
  "data": [
    {"compound": "O=C(/C=C/c1ccc(O)c(O)c1)O[C@@H]1C[C@](O)(C(=O)O)C[C@@H](O)[C@H]1O", "note": "[Chologenic acid, Chlorogenic acid]", "values": [
      {"measurement": "Phagotrophic index (X ± SD)", "setting": "[1]", "result": "0.52 ± 0.07"},
      {"measurement": "Phagotrophic percentage (%, X ± SD)", "setting": "[1]", "result": "36.58 ± 4.50", "unit": "%"},
      {"measurement": "α value (X ± SD)", "setting": "[2]", "result": "3.94 ± 1.05"},
      {"measurement": "K value (X ± SD)", "setting": "[2]", "result": "0.019 ± 0.011"},
      {"measurement": "MDA(nmol/L) (x ± s)", "setting": "[3]; TBA colorimetric method", "result": "27.14 ± 3.41", "unit": "nmol/L"},
      {"measurement": "SOD(U/L) (x ± s)", "setting": "[3]; xanthine oxidase method", "result": "218.73 ± 25.32 ^ U/L"}
    ]},
    {"compound": "Mannatide [reference compound]", "values": [
      {"measurement": "Phagotrophic index (X ± SD)", "setting": "[1]", "result": "0.57 ± 0.05***^ΔΔ"},
      {"measurement": "Phagotrophic percentage (%, X ± SD)", "setting": "[1]", "result": "40.32 ± 2.25***^ΔΔ %"},
      {"measurement": "α value (X ± SD)", "setting": "[2]", "result": "4.43 ± 1.06"},
      {"measurement": "K value (X ± SD)", "setting": "[2]", "result": "0.019 ± 0.013"}
    ]}
  ]
}
